The values below come from article PMC10997566, “Kinetic profiling of novel spirobenzo-oxazinepiperidinone derivatives as equilibrative nucleoside transporter 1 inhibitors” (Purinergic Signalling, 2023).

The assay concerns the target T1, hENT1 (Homo sapiens, UniProt Q99808).
T1 sequence (Q99808 1-456): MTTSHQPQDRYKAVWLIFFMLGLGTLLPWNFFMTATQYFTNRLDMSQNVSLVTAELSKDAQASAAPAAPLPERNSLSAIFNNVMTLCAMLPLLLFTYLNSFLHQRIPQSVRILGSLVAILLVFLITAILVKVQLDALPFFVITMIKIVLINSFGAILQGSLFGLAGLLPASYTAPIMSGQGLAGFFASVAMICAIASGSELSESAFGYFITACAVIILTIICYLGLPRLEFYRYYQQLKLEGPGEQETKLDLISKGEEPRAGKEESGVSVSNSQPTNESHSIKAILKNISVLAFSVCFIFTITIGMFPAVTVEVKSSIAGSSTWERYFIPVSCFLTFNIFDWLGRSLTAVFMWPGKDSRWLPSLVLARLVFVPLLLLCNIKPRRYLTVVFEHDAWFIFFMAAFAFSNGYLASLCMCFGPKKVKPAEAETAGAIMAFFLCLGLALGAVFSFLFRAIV
Kind of assay: [3H]NBTI competition association assay (Motulsky and Mahan). The note with it: 10 °C; for RT (residence time): RT = 1/koff; for koff / kon: human erythrocyte membranes, competitor at IC50 concentration, mean ± SEM.

What is called koff is a measure of how fast the partners let go of each other. Read a high koff as a short-lived complex. Usually kon stands for the rate constant with which the complex forms.

Each structure is given as a SMILES string.

Regarding `CC(=O)Nc1cc2c(cc1Cl)C(=O)NC1(CCN(CCNC(=O)c3c(Cl)cccc3Cl)CC1)O2` [Compound 4], the “RT (residence time)” value was determined as 2.6 ± 0.7 min, the koff came out at 0.00643 ± 0.00178 s⁻¹ and the kon was determined as 200000 ± 100000 M⁻¹ s⁻¹.

Regarding `COCNc1cc2c(cc1Cl)C(=O)NC1(CCN(CCNC(=O)c3c(Cl)cccc3Cl)CC1)O2` [Compound 5], the “RT (residence time)” value was 5.4 ± 0.7 min, the koff is 0.00308 ± 0.000383 s⁻¹ and the kon came to 600000 ± 100000 M⁻¹ s⁻¹.

Turning to `O=C1NC2(CCN(CCNC(=O)c3c(Cl)cccc3Cl)CC2)Oc2cc(NC3CCCC3)c(Cl)cc21` [Compound 6], the “RT (residence time)” value is on record as 21 ± 1.4 min, the koff was determined as 0.0008 ± 5e-05 s⁻¹ and the kon was determined as 1.68e+06 ± 583000 M⁻¹ s⁻¹.

For the compound `CNCCCNc1cc2c(cc1Cl)C(=O)NC1(CCN(CCNC(=O)c3c(Cl)cccc3Cl)CC1)O2` [Compound 8], the “RT (residence time)” value came to 3.4 ± 0.6 min, the koff is 0.00493 ± 0.000833 s⁻¹ and the kon was 183000 ± 67000 M⁻¹ s⁻¹.

With `CC(=O)NCCCNc1cc2c(cc1Cl)C(=O)NC1(CCN(CCNC(=O)c3c(Cl)cccc3Cl)CC1)O2` [Compound 9], the “RT (residence time)” value amounted to 10 ± 0.9 min, the koff is 0.0016 ± 0.00013 s⁻¹ and the kon was found to be 417000 ± 83000 M⁻¹ s⁻¹.

For the compound `CN(CCCNc1cc2c(cc1Cl)C(=O)NC1(CCN(CCNC(=O)c3c(Cl)cccc3Cl)CC1)O2)C(=O)OC(C)(C)C` [Compound 10], the “RT (residence time)” value was 26 ± 2.0 min, the koff was found to be 0.000633 ± 5e-05 s⁻¹ and the kon stood at 550000 ± 50000 M⁻¹ s⁻¹.

In the case of `O=C1NC2(CCN(CCNC(=O)c3c(Cl)cccc3Cl)CC2)Oc2cc(N3CCOCC3)c(Cl)cc21` [Compound 11], the “RT (residence time)” value was 16 ± 3.3 min, the koff was 0.00107 ± 0.000233 s⁻¹ and the kon came out at 667000 ± 100000 M⁻¹ s⁻¹.

Take `O=C1NC2(CCN(CCNC(=O)c3c(Cl)cccc3Cl)CC2)Oc2cc(N3CCNCC3)c(Cl)cc21` [Compound 12]: the “RT (residence time)” value is listed as 2.9 ± 0.2 min, the koff was 0.00583 ± 0.000433 s⁻¹ and the kon stood at 633000 ± 67000 M⁻¹ s⁻¹.

Turning to `CN1CCN(c2cc3c(cc2Cl)C(=O)NC2(CCN(CCNC(=O)c4c(Cl)cccc4Cl)CC2)O3)CC1` [Compound 13], the “RT (residence time)” value is 11 ± 0.5 min, the koff was found to be 0.00148 ± 6.7e-05 s⁻¹ and the kon came to 450000 ± 67000 M⁻¹ s⁻¹.

Take `CC(C)(C)OC(=O)N1CCN(c2cc3c(cc2Cl)C(=O)NC2(CCN(CCNC(=O)c4c(Cl)cccc4Cl)CC2)O3)CC1` [Compound 14]: the “RT (residence time)” value amounted to 38 ± 14 min, the koff worked out at 0.00045 ± 0.000167 s⁻¹ and the kon was 333000 ± 17000 M⁻¹ s⁻¹.

In the case of `O=C1NC2(CCN(CCNC(=O)c3c(Cl)cccc3Cl)CC2)Oc2cc(NC3CCOCC3)c(Cl)cc21` [Compound 15], the “RT (residence time)” value turned out to be 10 ± 0.7 min, the koff turned out to be 0.00167 ± 0.00012 s⁻¹ and the kon is 550000 ± 130000 M⁻¹ s⁻¹.

On to `O=C1NC2(CCN(CCNC(=O)c3c(Cl)cccc3Cl)CC2)Oc2cc(NC3CCNCC3)c(Cl)cc21` [Compound 16], for which the “RT (residence time)” value worked out at 2.2 ± 0.4 min, the koff worked out at 0.00773 ± 0.00153 s⁻¹ and the kon worked out at 267000 ± 33000 M⁻¹ s⁻¹.

`CN1CCC(Nc2cc3c(cc2Cl)C(=O)NC2(CCN(CCNC(=O)c4c(Cl)cccc4Cl)CC2)O3)CC1` [Compound 17]: the “RT (residence time)” value is recorded as 1.9 ± 0.1 min, the koff worked out at 0.00892 ± 0.000517 s⁻¹ and the kon amounted to 367000 ± 33000 M⁻¹ s⁻¹.

For `CC(C)(C)OC(=O)N1CCC(Nc2cc3c(cc2Cl)C(=O)NC2(CCN(CCNC(=O)c4c(Cl)cccc4Cl)CC2)O3)CC1` [Compound 19], the “RT (residence time)” value is listed as 34 ± 9.7 min, the koff was determined as 0.0005 ± 0.00015 s⁻¹ and the kon was determined as 317000 ± 17000 M⁻¹ s⁻¹.
